Measurements published in PubChem BioAssay AID2745 (NMMLSC, 2010).
Where “and” joins values, the source holds several entries; their conditions need not be identical. Equal entries are not always repeated. Calls of active or inactive are those of the source. The rule behind the calls is not given here.

Experiment: LAP4-GFP modulation potency in yeast, dose response, cell-based, MLPCN hits, flow cytometry (AID 2745);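 note: yeast exposed to compound for three hours at 30 degrees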
Conditions: S. cerevisiae LAP4-GFP reporter, flow cytometry fluorescence; at 33 µM (top of the series)

| Compound | LAP4-GFP fluorescence (kMESF) |
| --- | --- |
| CC1=C(C)/C(=N\OS(=O)(=O)c2ccc(C)cc2)C=CC1=O | 5.77 kMESF (inactive) |
| Nc1ccccc1SC(C[N+](=O)[O-])c1ccccc1 (stereo not given) | 11.5 kMESF (inactive) |
| O=C1c2sc3nc4ccccc4n3c2C(=O)N1c1ccccc1Cl | 3.64 kMESF (inactive) |
| COc1ccccc1NC1=C(Cl)C(=O)N(c2ccccc2)C1=O | 2.98 kMESF (inactive) |
| O=C(COc1ccccc1)NNC(=S)NC(=O)c1ccccc1 | 4.36 kMESF (inactive) |
| C#CCOCCOCCOCCNc1nc(N2CCN(C(=O)CCCCCCCCCCNC(=O)[C@H](CCCCN)n3cc(C)nn3)CC2)nc(N2CCN(C(=O)CCCCCCCCCCNC(=O)[C@H](CCCN=C(N)N)n3cc(C[C@@H](C)CC)nn3)CC2)n1 | 6.77 kMESF (inactive) |
| Clc1cnc(N/N=C/c2cccs2)c(Cl)c1 | 6.2 kMESF (inactive) |
| CCCS(=O)(=O)c1nnnn1-c1cccc(OC)c1 | 18.2 kMESF (inactive) |
| Nc1nc(N)c2nc(CNc3ccc(C(=O)NC(CCC(=O)O)C(=O)O)cc3)cnc2n1 (stereo not given) | 3.13 kMESF (inactive) |
| CCCc1nnc(NC(=O)c2c(O)c3cccc4c3n(c2=O)CCC4)s1 | 0.3 kMESF (inactive) |
| C=CCOc1ccccc1C(=O)/C=C1/C(=O)Nc2ccccc21 | 10.2 kMESF (inactive) |
| Cc1ccc(/C=C/C(=O)c2ccc([N+](=O)[O-])o2)cc1 | 9.71 kMESF (inactive) |
| CCOC(=O)CS(=O)(=O)c1nc(-c2ccccc2)cc(C(F)(F)F)n1 | 19.9 kMESF (inactive) |
| Cc1ccc2nc(/C(C#N)=C/c3ccc(O)c(O)c3)[nH]c2c1 | 4.39 kMESF (inactive) |
| Nc1nc2ncc(CNc3ccc(C(=O)N[C@@H](CCC(=O)O)C(=O)O)cc3)nc2c(=O)[nH]1 | 4.01 kMESF (inactive) |
| O=C1N(c2ccccc2C(F)(F)F)OC1(Cc1ccccc1)c1ccccc1 (stereo not given) | 4.48 kMESF (inactive) |
| O=c1c(-c2ccc(Cl)cc2)[n+]([O-])c2ccccc2n1O | 16.1 kMESF (inactive) |
| CCCCc1ccc(NC(=O)CC(C)=O)cc1 | 3.54 kMESF (inactive) |
| O=C(OCC(=O)N1CCN(C(=O)c2ccco2)CC1)c1cc(-c2ccccc2)nc2ccccc12 | 10.4 kMESF (inactive) and 6.1 kMESF (inactive) |
| C[C@H]1C[C@@H](C)C(=O)[C@@H]([C@H](O)CC2CC(=O)NC(=O)C2)C1 | 7.12 kMESF (inactive) |
| O=C(c1ccc(Cl)cc1)N1CCN(c2cccc3[nH]ccc23)CC1 | 6.45 kMESF (inactive) |
| CCCOc1ccc(C(=O)NNC(=S)NC(=O)c2ccccc2)cc1 | 8.22 kMESF (inactive) |

| Compound | LAP4-GFP fluorescence (kMESF) |
| --- | --- |
| Cc1ccc(C(CC(=O)O)NC(=O)c2ccc(S(=O)(=O)N3CC(C)OC(C)C3)cc2)cc1 (stereo not given) | 3.28 kMESF (inactive) |
| CN(O)/C=c1/ccc2c(n1)C(=O)C=CC=2 | 17.5 kMESF (inactive) |
| COc1ccc(CCNC2=C(Cl)C(=O)N(CCc3ccccc3)C2=O)cc1OC | 3.31 kMESF (inactive) |
| Cc1cccc(NC(c2ccc(C)s2)c2ccc3ccc(C)nc3c2O)n1 (stereo not given) | 16.8 kMESF (inactive) |
| COc1ccc(C(=O)/C=C2/C(=O)Nc3ccccc32)c(OC)c1 | 10.1 kMESF (inactive) |
| CCN(CC(=O)Nc1cc(S(=O)(=O)N2CCOCC2)ccc1Cl)Cc1ccccc1 | 3.97 kMESF (inactive) |
| Cc1cc(O)c(C(=O)/C=C/c2c(F)c(F)c(F)c(F)c2F)c(=O)o1 | 7 kMESF (inactive) |
| CCOC(=O)CSC1=NC(=O)/C(=C/c2ccc(OC)cc2)S1 | 6.28 kMESF (inactive) |
| c1ccc(-c2csc(Nc3cccnc3)n2)nc1 | 3.67 kMESF (inactive) |
| Cc1ccccc1C(=O)NNC(=S)NC(=O)c1ccc(Cl)cc1Cl | 8.22 kMESF (inactive) |
| CC(C)Cn1c(=O)c(C(=O)Nc2ccncc2)c(O)c2ccccc21 | 2.36 kMESF (inactive) |
| COc1cc(NC(=O)c2cccc(C)c2)ccc1NC(=O)c1cc2ccccc2o1 | 3.31 kMESF (inactive) |
| Cc1ccc(/C(N)=N/OC(=O)c2ccc(F)cc2)cc1 | 5.21 kMESF (inactive) |
| Cc1cccc(C(=O)NNC(=S)NC(=O)c2ccccc2)c1 | 9.62 kMESF (inactive) |
| CC(=O)CSc1ncnc2c1cnn2-c1ccccc1 | 3.61 kMESF (inactive) |
| CCOC(=O)Cn1cc(/C=C/[N+](=O)[O-])c2ccccc21 | 8.42 kMESF (inactive) |
| O=C(O)c1ccccc1SC1CC(=O)N(c2ccc3c(c2)OCO3)C1=O (stereo not given) | 5.3 kMESF (inactive) |
| O=C(Nc1nnc(-c2ccc3c(c2)CCCC3)o1)c1ccc(Cl)cc1Cl | 5.77 kMESF (inactive) |
| COc1ccccc1C(=O)NNC(=S)NC(=O)c1cccs1 | 6.21 kMESF (inactive) |
| COc1ccc(C(=O)NC(=S)NNC(=O)c2cnccn2)cc1OC | 9.2 kMESF (inactive) |
| O=C1CCN(S(=O)(=O)c2ccccc2)CCN1CCOCc1ccc(F)cc1 | 2.43 kMESF (inactive) |
| CC(C)C(=O)NC(c1cccs1)c1cc([N+](=O)[O-])c2cccnc2c1O (stereo not given) | 10.5 kMESF (inactive) |

| Compound | LAP4-GFP fluorescence (kMESF) |
| --- | --- |
| CC1(c2ccccc2)ON(c2ccccc2C(F)(F)F)C1=O (stereo not given) | 5.97 kMESF (inactive) |
| CCN(CC)C(=O)Oc1ccnc2cc(Cl)ccc12 | 7.62 kMESF (inactive) |
| O=c1c2cc(Br)ccc2nc(-c2ccc([N+](=O)[O-])cc2)n1O | 6.81 kMESF (inactive) |
| Cc1[nH][nH]c(=O)c1C(c1ccc(-c2ccc(Cl)c(Cl)c2)o1)c1c(C)[nH][nH]c1=O | 6.01 kMESF (inactive) |
| Cc1ccc(NC(=O)c2cc(N3C(=O)C=CC3=O)ccc2N2CCOCC2)cc1Cl | 10.5 kMESF (inactive) |
| CC(C)CC(=O)NC(=S)Nc1nc(-c2ccccc2)cs1 | 3.44 kMESF (inactive) |
| Cc1ccc2[nH]cc(/C=C/c3cc[n+](C)cc3)c2c1 | 5.34 kMESF (inactive) |
| Cn1ncc2c(O/N=C(\N)c3ccc(C(C)(C)C)cc3)ncnc21 | 5.61 kMESF (inactive) |
| COc1ccc(C2(C)ON(c3ccccc3C(F)(F)F)C2=O)cc1 (stereo not given) | 6.61 kMESF (inactive) |
| CCN1/C(=C/c2ccc3cc(C)ccc3[n+]2CC)Sc2ccc3sccc3c21 | 10.7 kMESF (inactive) |
| NC(=O)COc1ccc(C(=O)/C=C2/C(=O)Nc3ccccc32)cc1 | 6.78 kMESF (inactive) |
| O=C(/C=C/c1cccc(Cl)c1)c1nc2ccccc2[nH]1 | 4.71 kMESF (inactive) |
| O=C(/C=C/c1cccc([N+](=O)[O-])c1)c1ccc([N+](=O)[O-])o1 | 2.78 kMESF (inactive) |
| Cc1ccc(C)c(/C=C/C(=O)c2ccccc(=O)c2O)c1 | -0.2 kMESF (inactive) |
| O=C(Oc1oc(-c2ccco2)nc1C=Nc1ccccc1)c1ccoc1 | 8.01 kMESF (inactive) |
| N#Cc1c2ccc([N+](=O)[O-])cc2[n+]([O-])n1-c1ccccc1 | 4.85 kMESF (inactive) |
| O=C(/C=C/c1ccc(Br)cc1)NC(=S)NNC(=O)c1ccco1 | 5.87 kMESF (inactive) |
| O=C(Oc1oc(-c2ccco2)nc1C=Nc1ccc(Cl)cc1)c1ccco1 | 8.92 kMESF (inactive) |
| O=C(Oc1cccc2cccnc12)c1ccc(Br)o1 | 3.74 kMESF (inactive) |
| O=C(COc1c(Br)cc(Br)c2cccnc12)N1CCc2ccccc2C1 | 12.3 kMESF (inactive) |
| CCOc1ccc(N/N=C(/C#N)C(N)=O)cc1 | 9.57 kMESF (inactive) |
| O=C(Cc1ccc(Cl)cc1)NNC(=S)NC(=O)c1cccs1 | 9.52 kMESF (inactive) |

| Compound | LAP4-GFP fluorescence (kMESF) |
| --- | --- |
| CC(C)[C@]1(c2ccccc2)ON(c2ccccc2C(F)(F)F)C1=O | 2.53 kMESF (inactive) |
| Cc1ccc(C(=O)Oc2oc(-c3ccccc3)nc2C=Nc2ccc(N(C)C)cc2)cc1 | 6.02 kMESF (inactive) |
| COc1ccc(-c2cc3cc(C(=O)O)ccn3c2C(=O)c2ccccc2)cc1 | 6.45 kMESF (inactive) |
| O=S(=O)(c1ccccc1)c1ccc(C(F)(F)F)cn1 | 4.29 kMESF (inactive) |
| O=C(O)c1ccn2c(C(=O)c3ccccc3)c(-c3ccccc3)cc2c1 | 7.25 kMESF (inactive) |
| CCOc1cc(C=C2C(=O)c3ccccc3C2=O)ccc1OCC(=O)Nc1ccc(C)cc1 | 3.87 kMESF (inactive) |
| O=C(OCC(=O)N1CCN(C(=O)c2ccco2)CC1)c1cc(-c2cccc(Br)c2)nc2ccccc12 | 9.27 kMESF (inactive) |
| COc1ccc(OC)c(S(=O)(=O)ON2C(=O)c3ccccc3C2=O)c1 | 1.75 kMESF (inactive) |
| O=C(c1ccc([N+](=O)[O-])o1)N1CCN(c2nc3c(F)cc(F)cc3s2)CC1 | -0.9 kMESF (inactive) |
| Cc1c(Br)c(=O)oc2c(Br)c(O)c(O)cc12 | 2.43 kMESF (inactive) |
| Oc1c(Br)cc(Br)cc1C=Nc1ccc2c(c1)OCO2 | 10.8 kMESF (inactive) |
| Cc1ccc(C(=O)/C=C/C(=O)c2ccc(C)cc2)cc1 | 6.7 kMESF (inactive) |
| CC(=O)OC[C@]12CC[C@H]3[C@@](C)(CC[C@H]4C(C)(C)CCC[C@]34C)[C@@H]1C[C@H](C1=CC(=O)O[C@@H]1OC(C)=O)O2 | 13.6 kMESF (inactive) |
| COc1cc(/C=C2/C(=O)ON=C2c2ccccc2)ccc1O | 9.39 kMESF (inactive) |
| O=C1C(Cl)=C(Nc2ccccc2O)C(=O)N1CCc1ccccc1 | 5.01 kMESF (inactive) |
| C#CCOCCOCCOCCNc1nc(N2CCN(C(=O)CCCCCCCCCCNC(=O)[C@H](CCCCN)n3cc(CCO)nn3)CC2)nc(N2CCN(C(=O)CCCCCCCCCCNC(=O)[C@H](CCCCN)n3cc(C[C@@H](C)CC)nn3)CC2)n1 | 5.86 kMESF (inactive) |
| COc1cc(/C=C2\C(=O)ON=C2c2ccccc2)cc(OC)c1OC | 6.41 kMESF (inactive) |
| CCCc1cc(NCc2ccccn2)n2nc(C)c(-c3ccccc3)c2n1 | 9.24 kMESF (inactive) |
| CCOC(=O)C(C(=O)OCC)C(C(=O)OCC)N1CCOCC1 (stereo not given) | 6.39 kMESF (inactive) |
